In patent publication US20260297105A1, “RAF-MEK PROTEIN COMPLEX MODULATORS AND METHODS OF USE THEREOF” (GANDEEVA THERAPEUTICS, INC., priority 2023, published 2026):
Like-named read-outs stand apart in the source and are kept apart here.

Tests used:
BRAF-MEK1 = test: BRAF-MEK TR-FRET assay, stabilization of MEK1 and BRAF interaction; type: binding; conditions: 4 nM BRAF, 10 nM MEK, 100 μM ATP, 1 hr at 25° C., read-out: BRAF-MEK TR-FRET Assay (EC50, fold stabilization)
From the text: Protein expression and purification: BRAF (445-723) with N-term His-tag and C-term StrepII tag was expressed using the Expi293 system (ThermoFisher) and purified using Strep-Tactin® XT-Superflow (IBA) chromatography. ERK1 (full-length) with N-term His-tag was expressed in Rosetta DE3 cells (Millipore) and purified using HisTrap HP (Cytiva) and Superdex 200 (Cytiva) column chromatography. Full-length MEK1 for TR-FRET assays with N-term His-tag was expressed in BL21DE3 cells (ThermoFisher) and purified using HisTrap HP (Cytiva) and Superdex 200 (Cytiva) column chromatography.
Efficacy of exemplary compounds in stabilization of MEK1 and BRAF interaction: Compound stabilization of BRAF-MEK interaction was evaluated using TR-FRET (Time Resolved Fluorescence Energy Transfer). The FRET assay consisted of His-tagged MEK1 (produced in-house), GST-tagged BRAF (SignalChem, B08-11G), Anti His-Tb Cryptate donor, and Anti GST-XL665 acceptor fluorophores (PerkinElmer) to generate FRET signal upon BRAF-MEK1 binding. Compounds were prepared from DMSO stocks in assay buffer (50 mM Tris pH 7.5, 150 mM NaCl, 1 mM DTT, 0.05% Tween-20, 5 mM MgCl2, and 100 μM ATP) and incubated with 4 nM BRAF and 10 nM MEK for 1 hr at 25° C. 1 ng Anti His-Tb Cryptate/20 ng Anti GST-XL665 premix was then added and incubated for 1 hr at 25° C. TR-FRET was measured using Cytation5 microplate reader (Agilent) using Ex/Em=340/620 nm and Ex/Em=340/665 nm to determine the FRET ratio. Fold stabilization was calculated as FRET signal of treated well/DMSO control. Fold stabilization as a function of compound concentration from 2 replicate wells was fit with a 4-parameter logistic curve equation using GraphPad Prism or CDD Vault to derive EC50 values.
In this table, for the BRAF ADP Glo kinase assay, “A” indicates IC50 of less than 5 nM; “B” indicates IC50 of between 5 nM to 50 nM; and “C” indicates IC50 of between 50 nM to 500 nM. “D” indicates IC50 of greater than 500 nM. For the BRAF-MEK TR-FRET assay, “A” indicates EC50 of less than 50 nM; “B” indicates EC50 of between 50 nM to 200 nM; and “C” indicates EC50 of between 200 nM to 1 μM. “D′” indicates EC50 of greater than 1 μM. For the AlphaLisa P-ERK assay, “A” indicates IC50 of less than 1 nM; “B” indicates IC50 of between 1 nM to 10 nM; and “C” indicates IC50 of between 10 nM to 100 nM. “D” indicates IC50 of greater than 100 nM. For the cell viability assay, “A” indicates IC50 of less than 1 nM; “B” indicates IC50 of between 1 nM to 10 nM; and “C” indicates IC50 of between 10 nM to 100 nM. “D” indicates IC50 of greater than 100 nM.

MEK1 = target: T1, MEK1 (Homo sapiens, UniProt Q02750); test: MEK1 kinase cascade assay (ADP-Glo), inhibition of MEK1 kinase activity; type: biochemical; conditions: 25 nM BRAF, 6.25 nM MEK1, 0.5 μM ERK, 1 mM ATP; 20 min preincubation, 1 hr at 25° C.; read-out: BRAF ADP Glo kinase assay V3 (IC50)
T1 construct: purchased SignalChem M02-14H
T1 sequence (Q02750 whole entry): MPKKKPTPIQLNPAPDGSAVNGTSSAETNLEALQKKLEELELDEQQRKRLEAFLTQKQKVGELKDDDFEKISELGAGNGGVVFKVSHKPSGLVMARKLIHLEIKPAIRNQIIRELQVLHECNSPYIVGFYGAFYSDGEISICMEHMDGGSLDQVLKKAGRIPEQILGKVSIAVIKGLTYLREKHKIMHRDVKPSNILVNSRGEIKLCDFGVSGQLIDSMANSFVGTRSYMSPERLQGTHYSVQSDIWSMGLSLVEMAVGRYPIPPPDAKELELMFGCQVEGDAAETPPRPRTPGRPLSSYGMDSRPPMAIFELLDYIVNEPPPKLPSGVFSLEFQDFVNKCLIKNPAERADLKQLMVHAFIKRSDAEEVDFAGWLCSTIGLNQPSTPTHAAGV
T1 sequence (P15056 445-723 partner limits assumed): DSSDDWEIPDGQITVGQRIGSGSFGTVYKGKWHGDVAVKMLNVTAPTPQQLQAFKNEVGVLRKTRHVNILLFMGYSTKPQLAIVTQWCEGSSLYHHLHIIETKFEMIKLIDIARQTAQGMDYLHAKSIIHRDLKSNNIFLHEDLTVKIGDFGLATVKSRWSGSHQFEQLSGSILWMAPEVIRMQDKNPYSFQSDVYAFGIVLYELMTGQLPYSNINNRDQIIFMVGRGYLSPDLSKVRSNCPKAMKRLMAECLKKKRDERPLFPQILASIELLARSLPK
Summary of the method: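 Cascade format with ADP-Glo read-out: BRAF (25 nM) and compound, 1% DMSO, 20 mins at 25° C, then MEK1 6.25 nM, ERK1 0.5 μM, ATP 1 mM for 1 hr at 25° C in HEPES pH 7.5 buffer with MgCl2, CHAPS and DTT. Percent inhibition, scaled between DMSO and 1 μM Trametinib, was fit by 4-parameter logistic to give IC50 (2 replicate wells).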

| Compound | EC50 (BRAF-MEK1) | IC50 (MEK1) | EC50 (BRAF-MEK1; 60 min) |
| --- | --- | --- | --- |
| CNS(=O)(=O)Nc1cccc(CN2C(=O)Oc3c(ccc(OC(=O)N(C)C)c3F)[C@H]2C)c1F (single isomer, unassigned) [Compound 104, (R)-8-fluoro-3-(2-fluoro-3-((N-methylsulfamoyl)amino)benzyl)-4-methyl-2-oxo-3,4-dihydro-2H-benzo[e][1,3]oxazin-7-yl dimethylcarbamate or (S)-8-fluoro-3-(2-fluoro-3-((N-methylsulfamoyl)amino)benzyl)-4-methyl-2-oxo-3,4-dihydro-2H-benzo[e][1,3]oxazin-7-yl dimethylcarbamate] | 200 to 1000 nM | 5 to 50 nM |  |
| O=C1Oc2c(ccc(Oc3ncco3)c2F)C2(CCC2)N1Cc1ccnc(NS(=O)(=O)C2CC2)c1F [Compound 183, (cyclopropylsulfonyl)[3-fluoro-4-({8-fluoro-7-(1,3-oxazol-2-yloxy)-2-oxo-2H,3H-spiro[1,3-benzoxazine-4,1′-cyclobutan]-3-yl}methyl)-2-pyridyl]amine] | 200 to 1000 nM | 50 to 500 nM |  |
| CNS(=O)(=O)Nc1cccc(CN2C(=O)Oc3cc(OC(=O)N(C)C)c(Cl)cc3[C@H]2C)c1F [Compound 107, (R)-6-chloro-7-(dimethylaminocarbonyloxy)-3-{[2-fluoro-3-(methylaminosulfonylamino)phenyl]methyl}-4-methyl-3,4-dihydro-2H-1,3-benzoxazin-2-one] | 200 to 1000 nM | 5 to 50 nM |  |
| CNS(=O)(=O)Nc1cccc(CN2C(=O)Oc3c(ccc(Oc4cccnn4)c3F)[C@H]2C)c1F (single isomer, unassigned) [Compound 36] | 50 to 200 nM | 5 to 50 nM |  |
| O=C1Oc2c(ccc(Oc3cccnn3)c2F)C2(CCC2)N1Cc1ccnc(NS(=O)(=O)C2CC2)c1F [Compound 184, (cyclopropylsulfonyl)[3-fluoro-4-({8-fluoro-2-oxo-7-(3-pyridazinyloxy)-2H,3H-spiro[1,3-benzoxazine-4,1′-cyclobutan]-3-yl}methyl)-2-pyridyl]amine] | 50 to 200 nM | 50 to 500 nM |  |
| CN(C)S(=O)(=O)Nc1nccc(CN2C(=O)Oc3cc(Oc4cccnn4)ccc3C23CCC3)c1F [Compound 181, 3-{[2-(dimethylaminosulfonylamino)-3-fluoro-4-pyridyl]methyl}-7-(3-pyridazinyloxy)-2H,3H-spiro[1,3-benzoxazine-4,1′-cyclobutan]-2-one] | 200 to 1000 nM | 5 to 50 nM |  |
| O=C1Oc2c(ccc(Oc3nccnn3)c2F)C2(CCC2)N1Cc1ccnc(NS(=O)(=O)C2CC2)c1F [Compound 187, (cyclopropylsulfonyl)[3-fluoro-4-({8-fluoro-2-oxo-7-(1,2,4-triazin-3-yloxy)-2H,3H-spiro[1,3-benzoxazine-4,1′-cyclobutan]-3-yl}methyl)-2-pyridyl]amine] | 50 to 200 nM | 5 to 50 nM |  |
| CNS(=O)(=O)Nc1nccc(CN2C(=O)Oc3cc(Oc4ncco4)c(F)cc3C2C)c1F (single isomer, unassigned) [Compound 185, 6-fluoro-3-{[3-fluoro-2-(methylaminosulfonylamino)-4-pyridyl]methyl}-4-methyl-7-(1,3-oxazol-2-yloxy)-3,4-dihydro-2H-1,3-benzoxazin-2-one] |  | 5 to 50 nM | 50 to 200 nM |
| CN(C)C(=O)Oc1ccc2c(c1)OC(=O)N(Cc1cccc(NS(=O)(=O)N3CCOCC3)c1F)C2 [Compound 110, 3-(2-fluoro-3-(morpholine-4-sulfonamido)benzyl)-2-oxo-3,4-dihydro-2H-benzo[e][1,3]oxazin-7-yl dimethylcarbamate] | 200 to 1000 nM | 5 to 50 nM |  |
| CNS(=O)(=O)Nc1nccc(CN2C(=O)Oc3c(ccc(Oc4ncco4)c3F)C23CCC3)c1F [Compound 173, 8-fluoro-3-{[3-fluoro-2-(methylaminosulfonylamino)-4-pyridyl]methyl}-7-(1,3-oxazol-2-yloxy)-2H,3H-spiro[1,3-benzoxazine-4,1′-cyclobutan]-2-one] | < 50 nM | 5 to 50 nM |  |
| CNS(=O)(=O)Nc1cc(F)cc(CN2Cc3ccc(Oc4cccnn4)cc3OC2=O)c1F [Compound 200, 3-{[2,5-difluoro-3-(methylaminosulfonylamino)phenyl]methyl}-7-(3-pyridazinyloxy)-3,4-dihydro-2H-1,3-benzoxazin-2-one] | 200 to 1000 nM | 5 to 50 nM |  |
| CNS(=O)(=O)Nc1cccc(CN2Cc3cc(F)c(OC(=O)N(C)C)c(F)c3OC2=O)c1F [Compound 96, 6,8-difluoro-3-(2-fluoro-3-((N-methylsulfamoyl)amino)benzyl)-2-oxo-3,4-dihydro-2H-benzo[e][1,3]oxazin-7-yl dimethylcarbamate] | 50 to 200 nM | < 5 nM |  |
| CN(C)S(=O)(=O)Nc1cccc(CN2C(=O)Oc3cc(Oc4cccnn4)ccc3C23CCC3)c1F [Compound 25, 3-{[3-(dimethylaminosulfonylamino)-2-fluorophenyl]methyl}-7-(3-pyridazinyloxy)-2H,3H-spiro[1,3-benzoxazine-4,1′-cyclobutan]-2-one] | < 50 nM | < 5 nM |  |
| CNS(=O)(=O)Nc1cccc(CN2C(=O)Oc3cc(Oc4cccnn4)ccc3C23CC3)c1F [Compound 196, 3-{[2-fluoro-3-(methylaminosulfonylamino)phenyl]methyl}-7-(3-pyridazinyloxy)-2H,3H-spiro[1,3-benzoxazine-4,1′-cyclopropan]-2-one] | < 50 nM | < 5 nM |  |
| CNS(=O)(=O)Nc1cccc(CN2C(=O)Oc3cc(OC(=O)N(C)C)ccc3[C@H]2C)c1F [Compound 153, 3-(2-fluoro-3-((N-methylsulfamoyl)amino)benzyl)-4-methyl-2-oxo-3,4-dihydro-2H-benzo[e][1,3]oxazin-7-yl dimethylcarbamate] | 200 to 1000 nM | 5 to 50 nM |  |
| CN(C)C(=O)Oc1ccc2c(c1)OC(=O)N(Cc1cccc(NS(=O)(=O)N3CCC(C(N)=O)C3)c1F)C2 (centres unmarked) [Compound 28, 3-[(3-{[(3-carbamoylpyrrolidin-1-yl)sulfonyl]amino}-2-fluorophenyl)methyl]-2-oxo-3,4-dihydro-2H-1,3-benzoxazin-7-yl N,N-dimethylcarbamate] | 200 to 1000 nM | 5 to 50 nM |  |
| CNS(=O)(=O)Nc1cccc(CN2Cc3ccc(OC(=O)N(C)C)cc3OC2=O)c1F [Compound 156, 3-(2-fluoro-3-((N-methylsulfamoyl)amino)benzyl)-2-oxo-3,4-dihydro-2H-benzo[e][1,3]oxazin-7-yl dimethylcarbamate] | 200 to 1000 nM | 5 to 50 nM |  |
| CN(C)C(=O)Oc1ccc2c(c1)OC(=O)N(Cc1cccc(NS(=O)(=O)N(C)C)c1F)C21CCC1 [Compound 33, 3-({3-[(dimethylsulfamoyl)amino]-2-fluorophenyl}methyl)-2-oxo-2,3-dihydrospiro[1,3-benzoxazine-4,1′-cyclobutan]-7-yl N,N-dimethyl carbamate] | 50 to 200 nM | 5 to 50 nM |  |
| CNS(=O)(=O)Nc1nccc(CN2C(=O)Oc3cc(Oc4ncco4)cc(F)c3C23COC3)c1F [Compound 168, 5-fluoro-3-{[3-fluoro-2-(methylaminosulfonylamino)-4-pyridyl]methyl}-7-(1,3-oxazol-2-yloxy)-2H,3H-spiro[1,3-benzoxazine-4,3′-oxetan]-2-one] | 200 to 1000 nM | 5 to 50 nM |  |
